SMILES strings stand for the structures.

The test addresses T1, IRAK4 (Homo sapiens, UniProt Q9NWZ3).
T1 sequence (Q9NWZ3 1-460): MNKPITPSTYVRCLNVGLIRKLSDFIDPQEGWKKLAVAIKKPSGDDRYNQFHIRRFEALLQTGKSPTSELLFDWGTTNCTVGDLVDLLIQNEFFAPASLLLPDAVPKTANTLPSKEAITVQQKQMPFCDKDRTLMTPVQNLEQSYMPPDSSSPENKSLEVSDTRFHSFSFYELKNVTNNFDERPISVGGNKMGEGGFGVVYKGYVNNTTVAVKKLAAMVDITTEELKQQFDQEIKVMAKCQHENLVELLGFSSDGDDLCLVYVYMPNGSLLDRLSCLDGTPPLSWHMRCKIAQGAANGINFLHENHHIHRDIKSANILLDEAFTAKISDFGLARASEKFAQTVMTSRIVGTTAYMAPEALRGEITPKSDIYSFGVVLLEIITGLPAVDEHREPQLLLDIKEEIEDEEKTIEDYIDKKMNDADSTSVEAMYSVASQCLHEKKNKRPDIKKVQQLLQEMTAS
In words: OCI-LY-10 degradation assay (western blot, % IRAK4 degraded after 4 hours). Type of test: cell-based. Also noted: endogenous in cells; host or cells: OCI-LY10. The conditions noted are these: OCI-LY10 cells; for OCI-LY10 % IRAK4 Degradation: IRAK4 degraded after 4 hours, western blot; for OCI-LY10 % IRAK4 Degradation (0.01 uM) / OCI-LY10 % IRAK4 Degradation (0.1 uM) / OCI-LY10 % IRAK4 Degradation (1 uM): 4 hours; for OCI-LY10 % IRAK4 Degradation (0.01 uM): 0.01 uM compound; for OCI-LY10 % IRAK4 Degradation (0.1 uM): 0.1 uM compound; for OCI-LY10 % IRAK4 Degradation (1 uM): 1 uM compound. The essentials: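 IRAK4 loss after 4 h at 37° C was scored A (>50%), B (>20-50%) or C (<20%) from infrared western blots of RIPA lysates, 20-25 μg protein per lane. Compound was applied at 0.003-10 μM final to OCI-LY10 cells cultured in RPMI-1640 with 20% FBS and 55 μM 2-ME.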

As to `N#Cc1cnc2c(cnn2-c2cc(NC3CC3)c(-c3cn(CCOCCOCCOCCNc4cccc5c4C(=O)N(C4CCC(=O)NC4=O)C5=O)nn3)cn2)c1` (stereo not shown) [I-175, 1-[4-(cyclopropylamino)-5-[1-[2-[2-[2-[2-[[2-(2,6-dioxo-3-piperidyl)-1,3-dioxo-isoindolin-4-yl]amino]ethoxy]ethoxy]ethoxy]ethyl]triazol-4-yl]-2-pyridyl]pyrazolo[3,4-b]pyridine-5-carbonitrile], the “OCI-LY10 % IRAK4 Degradation” value was “C (<20% degradation)”. In the case of `NC(=O)c1nn(-c2ccc(CNCCCc3cccc4c3C(=O)N(C3CCC(=O)NC3=O)C4=O)cc2)cc1NC(=O)c1coc(-c2ccncc2)n1` (stereo not shown) [I-358], the “OCI-LY10 % IRAK4 Degradation (0.01 uM)” value is “C (<20% degradation)”, the “OCI-LY10 % IRAK4 Degradation (0.1 uM)” value was “C (<20% degradation)” and the “OCI-LY10 % IRAK4 Degradation (1 uM)” value is listed as “C (<20% degradation)”. With `Cc1ncsc1-c1ccc(CNC(=O)[C@@H]2C[C@@H](O)CN2C(=O)[C@@H](NC(=O)COCCOCCOCCOCCOCC(=O)N2CCN([C@H]3CC[C@H](Oc4ncnc5sc6c(c45)[C@@H](C[C@H](O)C(N)=O)CC6)CC3)CC2)C(C)(C)C)cc1` [I-123], the “OCI-LY10 % IRAK4 Degradation” value is “C (<20% degradation)”.

With `N#Cc1cnc2c(cnn2-c2cc(NC3CC3)c(C(=O)N[C@H]3CC[C@H](COCCOCCOCCNc4cccc5c4C(=O)N(C4CCC(=O)NC4=O)C5=O)C3)cn2)c1` (stereo partly shown) [I-35], the “OCI-LY10 % IRAK4 Degradation” value was “C (<20% degradation)”. In the case of `Cc1ncsc1-c1ccc(CNC(=O)[C@@H]2C[C@@H](O)CN2C(=O)[C@@H](NC(=O)COCCOCCOCCOCCOCCN2CCN([C@H]3CC[C@H](Oc4ncnc5sc6c(c45)[C@@H](C[C@H](O)C(N)=O)CC6)CC3)CC2)C(C)(C)C)cc1` [I-124, (2S,4R)-1-[(2S)-2-[[2-[2-[2-[2-[2-[2-[4-[4-[[(8R)-8-[(2S)-3-amino-2-hydroxy-3-oxo-propyl]-7,8-dihydro-6H-cyclopenta[4,5]thieno[1,2-c]pyrimidin-1-yl]oxy]cyclohexyl]piperazin-1-yl]ethoxy]ethoxy]ethoxy]ethoxy]ethoxy]acetyl]amino]-3,3-dimethyl-butanoyl]-4-hydroxy-N-[[4-(4-methylthiazol-5-yl)phenyl]methyl]pyrrolidine-2-carboxamide], the “OCI-LY10 % IRAK4 Degradation” value is listed as “C (<20% degradation)”. As to `NC(=O)[C@@H](O)C[C@H]1CCc2sc3ncnc(OC4CCC(N5CCN(C(=O)COCCOCCNc6cccc7c6C(=O)N(C6CCC(=O)NC6=O)C7=O)CC5)CC4)c3c21` (stereo partly drawn) [I-160, (2S)-3-[(8R)-1-[4-[4-[2-[2-[2-[[2-(2,6-dioxo-3-piperidyl)-1,3-dioxo-isoindolin-4-yl]amino]ethoxy]ethoxy]acetyl]piperazin-1-yl]cyclohexoxyl-7,8-dihydro-6H-cyclopenta[4,5]thieno 1,2-c]pyrimidin-8-yl]-2-hydroxy-propanamide], the “OCI-LY10 % IRAK4 Degradation” value was “C (<20% degradation)”. As for `CN(CCOCCOCCNc1cccc2c1C(=O)N(C1CCC(=O)NC1=O)C2=O)C(=O)[C@H]1CC[C@H](NC(=O)c2cnc(-n3ncc4cc(C#N)cnc43)cc2NC2CC2)CC1` (stereo partly shown) [I-42, 6-(5-cyano-1H-pyrazolo[3,4-b]pyridin-1-yl)-4-(cyclopropylamino)-N-((1r,4r)-4-((2-(2-(2-((2-(2,6-dioxopiperidin-3-yl)-1,3-dioxoisoindolin-4-yl)amino)ethoxy)ethoxy)ethyl) (methyl)carbamoyl)cyclohexyl)nicotinamide], the “OCI-LY10 % IRAK4 Degradation” value is “C (<20% degradation)”.

For `O=C1CCC(N2C(=O)c3ccc(NC4CCN(CCOCCOCCNCc5ccc(-n6cc(NC(=O)c7coc(-c8ccnc(NCC9CC9)c8)n7)c(C(F)F)n6)cc5)CC4)cc3C2=O)C(=O)N1` (stereo not shown) [I-335], the “OCI-LY10 % IRAK4 Degradation (0.01 uM)” value was “C (<20% degradation)”, the “OCI-LY10 % IRAK4 Degradation (0.1 uM)” value was “C (<20% degradation)” and the “OCI-LY10 % IRAK4 Degradation (1 uM)” value is recorded as “A (>50% degradation)”. As to `NC(=O)[C@@H](O)C[C@H]1CCc2sc3ncnc(O[C@H]4CC[C@H](N5CCN(CCOCCNc6cccc7c6C(=O)N(C6CCC(=O)NC6=O)C7=O)CC5)CC4)c3c21` (stereo partly drawn) [I-184, T(2R)-3-[(8R)-1-[4-[4-[2-[2-[[2-(2,6-dioxo-3-piperidyl)-1,3-dioxo-isoindolin-4-yl]amino]V ethoxy]ethyl]piperazin-1-yl]cyclohexoxy]-7,8-dihydro-6H-cyclopenta[4,5]thieno[1,2-c]pyrimidin-8-yl]-2-hydroxy-propanamide], the “OCI-LY10 % IRAK4 Degradation” value is on record as “C (<20% degradation)”. Consider `CC[C@@H]1[C@H](F)C(=O)N[C@@H]1COc1nccc2cc(C(=O)NCCOCCOCCOCCOCCNC(=O)COc3cccc4c3C(=O)N(C3CCC(=O)NC3=O)C4=O)c(OC)cc12` (stereo partly shown) [I-103], for which the “OCI-LY10 % IRAK4 Degradation” value is “C (<20% degradation)”. Same read-out and setting: the result for `N#Cc1cnc2c(cnn2-c2cc(NC3CC3)c(C(=O)NCC(F)COCCOCCOCCOCCNc3cccc4c3C(=O)N(C3CCC(=O)NC3=O)C4=O)cn2)c1` (stereo not shown) [I-72] reads “C (<20% degradation)”; that for `Cc1ncsc1-c1ccc(CNC(=O)[C@@H]2C[C@@H](O)CN2C(=O)[C@@H](NCCCCCOCCOCCCCCNC(=O)c2ccc(-n3cc(NC(=O)c4coc(-c5ccnc(NCC(F)(F)F)c5)n4)c(C(N)=O)n3)cc2)C(C)(C)C)cc1` [I-188, N-(3-carbamoyl-1-(4-((5-(2-((5-(((S)-1-((2S,4R)-4-hydroxy-2-((4-(4-methylthiazol-5-yl)benzyl)carbamoyl)pyrrolidin-1-yl)-3,3-dimethyl-1-oxobutan-2-yl)amino)pentyl)oxy)ethoxy)pentyl)carbamoyl)phenyl)-1H-pyrazol-4-yl)-2-(2-((2,2,2-trifluoroethyl)amino)pyridin-4-yl)oxazole-4-carboxamide], “C (<20% degradation)”. As for `NC(=O)c1nn(CC#CC#CCOCCOCCNc2cccc3c2C(=O)N(C2CCC(=O)NC2=O)C3=O)cc1NC(=O)c1coc(-c2ccnc(NCC3CC3)c2)n1` (stereo not shown) [I-434, N-[3-carbamoyl-1-[6-[2-[2-[[2-(2,6-dioxo-3-piperidyl)-1,3-dioxo-isoindolin-4-yl]amino]ethoxy]ethoxy]hexa-2,4-diynyl]pyrazol-4-yl]-2-[2-(cyclopropylmethylamino)-4-pyridyl]oxazole-4-carboxamide], the “OCI-LY10 % IRAK4 Degradation (0.01 uM)” value is on record as “C (<20% degradation)”, the “OCI-LY10 % IRAK4 Degradation (0.1 uM)” value is “C (<20% degradation)” and the “OCI-LY10 % IRAK4 Degradation (1 uM)” value was “C (<20% degradation)”. As to `CC(OCCOCCOCCNc1cccc2c1C(=O)N(C1CCC(=O)NC1=O)C2=O)C(F)CNC(=O)c1cnc(-n2ncc3cc(C#N)cnc32)cc1NC1CC1` (stereo not shown) [I-63], the “OCI-LY10 % IRAK4 Degradation” value was “C (<20% degradation)”. Take `CC(C)(OCCOCCNCCOCCNc1cccc2c1C(=O)N(C1CCC(=O)NC1=O)C2=O)C(F)CNC(=O)c1cnc(-n2ncc3cc(C#N)cnc32)cc1NC1CC1` (stereo not shown) [I-131]: the “OCI-LY10 % IRAK4 Degradation” value is “C (<20% degradation)”. As for `NC(=O)c1nn(CCNCCOCCOCCNc2cccc3c2C(=O)N(C2CCC(=O)NC2=O)C3=O)cc1NC(=O)c1coc(-c2ccnc(NCC3CC3)c2)n1` (stereo not shown) [I-326], the “OCI-LY10 % IRAK4 Degradation (0.01 uM)” value is recorded as “B (>20-50% degradation)”, the “OCI-LY10 % IRAK4 Degradation (0.1 uM)” value was “C (<20% degradation)” and the “OCI-LY10 % IRAK4 Degradation (1 uM)” value is “C (<20% degradation)”. For `N#Cc1cnc2c(cnn2-c2cc(NC3CC3)c(C(=O)NCC(F)COCCCCCNC(=O)COc3cccc4c3C(=O)N(C3CCC(=O)NC3=O)C4=O)cn2)c1` (stereo not shown) [I-102], the “OCI-LY10 % IRAK4 Degradation” value was “C (<20% degradation)”.
